16 compounds from patent US9321742B2, “N1-cyclic amine-N5-substituted biguanide derivatives, methods of preparing the same and pharmaceutical composition comprising the same” (IMMUNOMET THERAPEUTICS INC., priority 2011, dated 2016) can be followed below.

For data set [1], the system named is HCT116 cells. Nature of the data set: Measurement of effect of inhibiting cancer cell proliferation (MTT). As to conditions: Homo sapiens; for inhibition at 100 µM: HCT-116, 100 uM, read-out: Cell Growth Inhibition (%) at 100 uM; for GI50: HCT-116, 48 hours. It is filed as cell-based. The text has this:
HCT116 cells derived from human colorectal cancer (commercially available from the Korean Cell Line Bank) were used, and the effect of inhibiting cancer cell proliferation of the biguanide derivative was confirmed by measuring the concentration value (cell growth inhibition concentration, GIC50) at which cell growth was inhibited by 50% using a 3-(4,5-dimethylthiazol-2-yl)-2,5-[…] bromide (MTT) reagent.
First, HCT116 cells were put on a 96-well plate and cultured in a DMEM medium containing 10% fetal bovine serum for 16 hours so that the cellcount in each well was approximately 5,000. Subsequently, to obtain the GIC50 value of each compound, culture media were treated with 100 μM, 25 μM, 6.25 μM, 1.56 μM or 0.39 μM of the compound, and then cultured for 48 hours. At this time, some of the compounds were treated with 200 μM instead of 100 μM. Metformin hydrochloride was used as the control, and the culture media were treated with 25, 12.5, 2.5, 0.5, 0.1 mM metformin hydrochloride, and then tested in the same manner as described in the derivatives synthesized in the examples. In order to determine whether the cells survived after treatment with the compound, MTT was added to the culture media which were then cultured for another 3 hours. Formed formazane crystals were dissolved using dimethyl sulfoxide (DMSO), and the absorbance of the resulting solution was measured at 560 nm. After the 48-hours culture, the ratio of the cell count cultured on a well plate not treated with the compound to the living cell count on a well plate treated with the compounds synthesized in the examples was indicated as cell viability (%) according to each treated concentration. A cell viability curve graph was plotted and the concentration (GIC50) value of the compound at which the growth was inhibited by 50% was calculated to confirm the effect of inhibition of cancer cell proliferation. Also, the cell growth viability (%) when the concentration of the treated biguanide derivative and the metformin hydrochloride as the control were 100 uM was shown.

The test system of data set [2] is AMPKα. The data set is described as follows: Measurement of AMPK-activation effect (AMPKα Thr172 phosphorylation immunoassay in MCF7 cells). As to conditions: 24 hours; for AMPK activation effect 10 uM (%) / AMPK activation effect 50 uM (%): relative to untreated cells. It is filed as cell-based, human. The method, then: MCF7 cells derived from human breast cancer cells (commercially available from the Korean Cell Line Bank) were used, and the AMPK (5′-AMP-activated protein kinase alpha)-activation effect of the biguanide derivative was confirmed using an AMPKα immunoassay kit (Invitrogen, Catalog No. KH00651).
MCF7 cells were cultured in a DMEM medium supplemented with 10% fetal bovine serum. Thereafter, the cultured MCF7 cells were put into a 6-well plate with approximately 5×10^5 cells per well and cultured in an incubator supplied with 5% CO2. Culture media were treated with the derivatives synthesized in the examples at contents of 5, 10 and 50 μM, and then cultured for 24 hours. Metformin hydrochloride was used as the control, and the culture media were treated with 0.05, 0.5, 1, 2, 5 and 10 mM metformin hydrochloride, and then tested in the same manner as described in the derivatives synthesized in the examples. Subsequently, the cells were lysed according to a method presented in the operation manual of the AMPKα immunoassay kit, and 20 μg of a cell lysate was then yielded through protein assay. Thereafter, the AMPK activation effect was obtained by determining the degree of phosphorylation of 172nd threonine residue (Thr172) of the AMPKα from the cell lysate according to the method presented in the operation manual of the AMPKα immunoassay kit. […] A curve graph showing AMPK activation according to the concentration of the treated compounds was plotted based on the obtained AMPKα activation results, the concentration (activation concentration 150, AC150) value of the compound whose AMPK activation reached 150% was calculated using a GraphPad Prism 5.0 program, and the degrees of AMPK activation were obtained when concentrations of the treated biguanide derivatives were 10 μM and 50 μM and the metformin hydrochloride was 50 μM.

SMILES strings stand for the structures.

Take `Cl.N=C(NCc1ccc(Cl)c(C(F)(F)F)c1)NC(=N)N1CCCCC1` [Example 45, N1-piperidine-N5-(4-chloro-3-trifluoromethyl)benzyl biguanide hydrochloride]: the melting point (in general, the temperature of the solid-liquid transition) fell in the range of 259 to 261 °C. In data set [1] (48 hours), the inhibition (commonly the relative decrease from the control value, in per cent) at 100 µM came to 96.9%. Besides, in data set [1], the GI50 (as a rule, the concentration giving 50% growth inhibition) amounted to 8.2 µM. For the same compound, in data set [2], the “AMPK activation effect 10 uM (%)” value is 162%, the “AMPK activation effect 50 uM (%)” value amounted to 232% and the “AC150 (concentration at which AMPK activation reached 150%)” value stood at 1.7 µM.

Consider `Cl.N=C(NCc1ccc(C(F)(F)F)c(F)c1)NC(=N)N1CCCCC1` [Example 46, N1-piperidine-N5-(3-fluoro-4-trifluoromethyl)benzyl biguanide hydrochloride], for which the melting point was in the range of 264 to 266 °C. In addition, in data set [1] (48 hours), the inhibition at 100 µM is 101%. Also, growth in data set [1] was halved (GI50) at 21.3 µM. In data set [2], the “AMPK activation effect 10 uM (%)” value was 331%, the “AMPK activation effect 50 uM (%)” value is on record as 389% and the “AC150 (concentration at which AMPK activation reached 150%)” value worked out at 1.1 µM.

`Cl.N=C(NCc1ccc(C(F)(F)F)c(Cl)c1)NC(=N)N1CCCCC1` [Example 47, N1-piperidine-N5-(3-chloro-4-trifluoromethyl)benzyl biguanide hydrochloride]: the melting point was in the range of 254 to 256 °C. Besides, the inhibition at 100 µM in data set [1] (48 hours) is 100%. In data set [1], this compound gave a GI50 of 7.4 µM. Moreover, in data set [2], the “AMPK activation effect 10 uM (%)” value stood at 433%, the “AMPK activation effect 50 uM (%)” value came out at 384% and the “AC150 (concentration at which AMPK activation reached 150%)” value was found to be 4.4 µM.

`Cl.N=C(NCc1ccc(F)c(OC(F)(F)F)c1)NC(=N)N1CCCCC1` [Example 48, N1-piperidine-N5-(4-fluoro-3-trifluoromethoxy)benzyl biguanide hydrochloride]: the melting point lay in the range of 233 to 235 °C. In data set [1] (48 hours), the inhibition at 100 µM is 96.4%. Further, growth in data set [1] was halved (GI50) at 13.4 µM. Further, in data set [2], the “AMPK activation effect 10 uM (%)” value was found to be 244% and the “AC150 (concentration at which AMPK activation reached 150%)” value was determined as 18.2 µM.

The compound `Cl.N=C(NCc1ccc(OC(F)(F)F)c(F)c1)NC(=N)N1CCCCC1` [Example 49, N1-piperidine-N5-(3-fluoro-4-trifluoromethoxy)benzyl biguanide hydrochloride] displayed a melting point of 266 to 268 °C. For the same compound, in data set [1] (48 hours), the inhibition at 100 µM is 97%. Besides, growth in data set [1] was halved (GI50) at 9.2 µM. In data set [2], the “AMPK activation effect 10 uM (%)” value was found to be 158%, the “AMPK activation effect 50 uM (%)” value stood at 147% and the “AC150 (concentration at which AMPK activation reached 150%)” value stood at 0.8 µM.

For `Cl.N=C(NCc1ccc(OC(F)(F)F)c(Cl)c1)NC(=N)N1CCCCC1` [Example 50, N1-piperidine-N5-(3-chloro-4-trifluoromethoxy)benzyl biguanide hydrochloride], the melting point is 240 to 241 °C. The inhibition at 100 µM in data set [1] (48 hours) was determined as 97%. The compound also registered a GI50 in data set [1] of 5.7 µM. Besides, in data set [2], the “AMPK activation effect 10 uM (%)” value was found to be 259% and the “AC150 (concentration at which AMPK activation reached 150%)” value was determined as 8.8 µM.

`Cl.N=C(NCc1c(F)cccc1F)NC(=N)N1CCCCC1` [Example 51, N1-piperidine-N5-(2,6-difluoro)benzyl biguanide hydrochloride] had a melting point of 229 to 232 °C. In data set [1] (48 hours), the inhibition at 100 µM worked out at 96.8%. In addition, the GI50 in data set [1] is more than 100 µM. Besides, in data set [2], the “AMPK activation effect 10 uM (%)” value stood at 179% and the “AC150 (concentration at which AMPK activation reached 150%)” value was 2.1 µM.

In the case of `Cl.N=C(NCc1ccc(F)c(F)c1)NC(=N)N1CCCCC1` [Example 52, N1-piperidine-N5-(3,4-difluoro)benzyl biguanide hydrochloride], the melting point was 230 to 232 °C. Besides, in data set [1] (48 hours), the inhibition at 100 µM turned out to be 46.5%. In data set [1], this compound showed a GI50 of 76.4 µM. In data set [2], the “AMPK activation effect 10 uM (%)” value is 327%, the “AMPK activation effect 50 uM (%)” value was 703% and the “AC150 (concentration at which AMPK activation reached 150%)” value came out at 3.8 µM.

The compound `Cl.N=C(NCc1ccc(Cl)cc1Cl)NC(=N)N1CCCCC1` [Example 53, N1-piperidine-N5-(2,4-dichloro)benzyl biguanide hydrochloride] showed a melting point of 240 to 241 °C. Moreover, in data set [1] (48 hours), the inhibition at 100 µM was 63.7%. In addition, the GI50 in data set [1] was found to be 9.1 µM. Moreover, in data set [2], the “AMPK activation effect 10 uM (%)” value was found to be 238%, the “AMPK activation effect 50 uM (%)” value is 831% and the “AC150 (concentration at which AMPK activation reached 150%)” value amounted to 3.5 µM.

`Cl.N=C(NCc1ccc(Cl)c(Cl)c1)NC(=N)N1CCCC1` [Example 54, N1-pyrrolidine-N5-(3,4-dichloro)benzyl biguanide hydrochloride] gave a melting point of 219 to 221 °C. Moreover, the inhibition at 100 µM in data set [1] (48 hours) was 98%. In data set [1], this compound yielded a GI50 of 21.1 µM. In data set [2], the “AMPK activation effect 10 uM (%)” value was determined as 315% and the “AC150 (concentration at which AMPK activation reached 150%)” value was found to be 0.8 µM.

`Cl.N=C(NCc1ccc(Cl)c(Cl)c1)NC(=N)N1CCCCC1` [Example 55, N1-piperidine-N5-(3,4-dichloro)benzyl biguanide hydrochloride]: the melting point is 242 to 244 °C. For the same compound, in data set [1] (48 hours), the inhibition at 100 µM came out at 97.7%. Further, it took 10.3 µM to inhibit growth in data set [1] by half (GI50). Besides, in data set [2], the “AMPK activation effect 10 uM (%)” value was determined as 443%, the “AMPK activation effect 50 uM (%)” value worked out at 830% and the “AC150 (concentration at which AMPK activation reached 150%)” value was found to be 0.9 µM.

With `Cl.N=C(NCCc1cccs1)NC(=N)N1CCCCC1` [Example 56, N1-piperidine-N5-(thiophene-2-yl)ethyl biguanide hydrochloride], the melting point fell in the range of 176 to 178 °C. Further, the inhibition at 100 µM in data set [1] (48 hours) was determined as 97.6%. Besides, in data set [2], the “AMPK activation effect 10 uM (%)” value is 612% and the “AC150 (concentration at which AMPK activation reached 150%)” value amounted to 9.0 µM.

In turn, `Cl.N=C(NCCc1ccccc1)NC(=N)N1CCCC1` [Example 57, N1-pyrrolidine-N5-(phenethyl)biguanide hydrochloride] registered a melting point of 213 to 215 °C. For the same compound, in data set [1] (HCT-116, 200 uM, 48 hours, read-out: Cell Growth Inhibition (%) at 200 uM), the inhibition at 200 µM is 23.2%. In data set [1], this compound gave a GI50 of more than 200 µM. For the same compound, in data set [2], the “AMPK activation effect 50 uM (%)” value came to 391% and the “AC150 (concentration at which AMPK activation reached 150%)” value was found to be 8.1 µM.

As for `Cl.N=C(NCCc1ccccc1)NC(=N)N1CCCCC1` [Example 58, N1-piperidine-N5-(phenethyl)biguanide hydrochloride], the melting point fell in the range of 235 to 237 °C. Besides, the inhibition at 100 µM in data set [1] (48 hours) came to 32.3%. In data set [1], the GI50 was determined as 43.2 µM. In addition, in data set [2], the “AMPK activation effect 10 uM (%)” value is on record as 167%, the “AMPK activation effect 50 uM (%)” value was determined as 388% and the “AC150 (concentration at which AMPK activation reached 150%)” value was 6.4 µM.

`Cl.N=C(NCCc1ccccc1)NC(=N)N1CCCCCC1` [Example 59, N1-azepane-N5-(phenethyl)biguanide hydrochloride]: the melting point fell in the range of 211 to 213 °C. Also, the inhibition at 100 µM in data set [1] (48 hours) was determined as 56.6%. In data set [1], this compound came in with a GI50 of 21.9 µM. For the same compound, in data set [2], the “AMPK activation effect 10 uM (%)” value is on record as 194%, the “AMPK activation effect 50 uM (%)” value was determined as 373% and the “AC150 (concentration at which AMPK activation reached 150%)” value amounted to 0.7 µM.

In turn, `Cl.N=C(NCCc1ccc(F)cc1)NC(=N)N1CCCCCC1` [Example 60, N1-azepane-N5-((4-fluoro)phenethyl)biguanide hydrochloride] showed a melting point of 211 to 212 °C. The inhibition at 100 µM in data set [1] (48 hours) amounted to 73.7%. The same compound had a GI50 in data set [1] of 22.4 µM. Also, in data set [2], the “AMPK activation effect 10 uM (%)” value stood at 744%, the “AMPK activation effect 50 uM (%)” value is on record as 721% and the “AC150 (concentration at which AMPK activation reached 150%)” value came out at 0.7 µM.
